The compounds below were run against T1, GLUT1 (Homo sapiens, UniProt P11166) (assay: Indirect measurement of GLUT1 activity by quantification of intracellular ATP levels (glucose induced ATP increase)). Details: read-out: IC50 regarding glucose induced ATP increase (GLUT1 inhibition).
T1 sequence (P11166 1-492): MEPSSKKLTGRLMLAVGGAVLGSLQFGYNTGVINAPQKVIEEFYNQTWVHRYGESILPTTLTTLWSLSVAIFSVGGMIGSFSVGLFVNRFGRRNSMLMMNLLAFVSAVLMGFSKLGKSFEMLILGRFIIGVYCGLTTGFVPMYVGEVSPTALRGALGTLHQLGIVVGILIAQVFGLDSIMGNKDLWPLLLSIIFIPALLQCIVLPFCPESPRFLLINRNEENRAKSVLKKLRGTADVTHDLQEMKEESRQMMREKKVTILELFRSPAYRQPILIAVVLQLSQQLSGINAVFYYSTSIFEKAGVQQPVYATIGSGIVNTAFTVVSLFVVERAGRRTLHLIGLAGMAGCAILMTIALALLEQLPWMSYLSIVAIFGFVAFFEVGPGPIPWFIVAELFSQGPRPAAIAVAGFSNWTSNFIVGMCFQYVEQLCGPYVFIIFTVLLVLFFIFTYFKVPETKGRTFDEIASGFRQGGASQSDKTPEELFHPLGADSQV
Type: cell-based
Set-up: endogenous in cells; host or cells: DLD1 or CHO-K1
Description: Indirect Measurement of GLUT1 and GLUT2 Activity by Quantification of Intracellular ATP Levels
It is well known that a combination of small-molecule inhibitors of mitochondrial electron transport chain and glucose catabolism synergistically suppress ATP production and impair cellular viability (Ulanovskaya et al., 2008, 2011; Liu, et al. 2001). We therefore used DLD1 or CHO-K1 cells in combination with an oxidative phosphorylation inhibitor to identify GLUT1 and GLUT2 inhibitors. Cell lines were maintained in DMEM medium supplemented with 10% FCS and 1% Penicillin-Streptomycin solution and 2% Glutamax. The cells were treated with trypsin and seeded into 384 plates at a density of 4000 cells/well. The cells were then cultured overnight in glucose free media containing 1% FCS to reduce intracellular ATP levels. […] The CellTiter-Glo® Luminescent Cell Viability Assay from Promega was then used to measure ATP Levels.

| SMILES | IC50 |
| --- | --- |
| Cc1nn(Cc2ccc(C(=O)NC3CCNC3=O)cc2)c(C)c1NC(=O)c1cc(C(F)(F)F)nc2ccc(Br)cc12 (racemic) [Example 1166] | 170 nM |
| COCCNC(=O)c1ccc(Cn2nc(C(F)(F)F)c(NC(=O)c3cc(C(N)=O)nc4cc(F)ccc34)c2C)cc1 [Example 373, 7-fluoro-N^4-[1-{4-[(2-methoxyethyl)carbamoyl]benzyl}-5-methyl-3-(trifluoromethyl)-1H-pyrazol-4-yl]quinoline-2,4-dicarboxamide] | 17.5 nM |
| Cc1nn(Cc2ccc(O)cc2)c(C)c1NC(=O)c1cc(C(F)(F)F)nc2ccc(Br)cc12 [Example 164, 6-bromo-N-[1-(4-hydroxybenzyl)-3,5-dimethyl-1H-pyrazol-4-yl]-2-(trifluoromethyl)quinoline-4-carboxamide] | 27.1 nM |
| Cc1nn(Cc2ccc(F)c(F)c2)c(C)c1NC(=O)c1cc(C2CC2)nc2ccc(F)cc12 [Example 162, 2-cyclopropyl-N-[1-(3,4-difluorobenzyl)-3,5-dimethyl-1H-pyrazol-4-yl]-6-fluoroquinoline-4-carboxamide] | 24.8 nM |
| Cc1nn(Cc2ccc(C#N)cc2)c(C(F)(F)F)c1NC(=O)c1cc(C(N)=O)nc2cc(F)ccc12 [Example 389, N^4-[1-(4-cyanobenzyl)-3-methyl-5-(trifluoromethyl)-1H-pyrazol-4-yl]-7-fluoroquinoline-2,4-dicarboxamide] | 1.9 nM |
| Cc1nn(Cc2ccc(C(=O)NCCCN3CCOCC3)cc2)c(C)c1NC(=O)c1cc(C(F)(F)F)nc2ccc(Br)cc12 [Example 1133] | 90.1 nM |
| Cc1c(NC(=O)c2cc(C(F)(F)F)nc3c(Cl)cc(Cl)cc23)c(C(F)(F)F)nn1Cc1ccc(F)c(F)c1 [Example 199, 6,8-dichloro-N-[1-(3,4-difluorobenzyl)-5-methyl-3-(trifluoromethyl)-1H-pyrazol-4-yl]-2-(trifluoromethyl)quinoline-4-carboxamide] | 441 nM |
| Cc1c(NC(=O)c2cc(C(F)(F)F)nc3ccc(Br)cc23)c(C(=O)NCCO)nn1Cc1ccc(F)cc1 [Example 1235] | 1280 nM |
| Cc1nn(Cc2ccc(F)cc2)c(C)c1NC(=O)c1cc(C(F)(F)F)nc2cc(F)c(Cl)cc12 [Example 121, 6-chloro-7-fluoro-N-[1-(4-fluorobenzyl)-3,5-dimethyl-1H-pyrazol-4-yl]-2-(trifluoromethyl)quinoline-4-carboxamide] | 1.7 nM |
| Cc1cc(Cn2nc(C(F)(F)F)c(NC(=O)c3cc(C(N)=O)nc4cc(F)c(Cl)cc34)c2C)no1 [Example 408, 6-chloro-7-fluoro-N^4-{5-methyl-1-[(5-methyl-1,2-oxazol-3-yl)methyl]-3-(trifluoromethyl)-1H-pyrazol-4-yl}quinoline-2,4-dicarboxamide] | 7.8 nM |
| Cc1c(NC(=O)c2cc(C(N)=O)nc3cccc(F)c23)c(C(F)(F)F)nn1Cc1ccc(C#N)nc1 [Example 291, N^4-{1-[(6-cyanopyridin-3-yl)methyl]-5-methyl-3-(trifluoromethyl)-1H-pyrazol-4-yl}-5-fluoroquinoline-2,4-dicarboxamide] | 6.9 nM |
| Cc1nn(CC2COc3ccccc3O2)c(C)c1NC(=O)c1cc(C(F)(F)F)nc2ccc(Br)cc12 (stereo not drawn) [Example 1208] | 481 nM |
| Cc1nn(Cc2ccc(C#N)cc2F)c(C)c1NC(=O)c1cc(C(N)=O)nc2cc(F)ccc12 [Example 300, N^4-[1-(4-cyano-2-fluorobenzyl)-3,5-dimethyl-1H-pyrazol-4-yl]-7-fluoroquinoline-2,4-dicarboxamide] | 0.5 nM |
| Cc1nn(Cc2ccc(F)cc2)c(C)c1NC(=O)c1cc(C(F)(F)F)nc2cccc(Br)c12 [Example 34, 5-bromo-N-[1-(4-fluorobenzyl)-3,5-dimethyl-1H-pyrazol-4-yl]-2-(trifluoromethyl)quinoline-4-carboxamide] | 25.2 nM |
| Cc1nn(Cc2ccncc2C#N)c(C)c1NC(=O)c1cc(C(N)=O)nc2ccccc12 [Example 286, N^4-{1-[(3-cyanopyridin-4-yl)methyl]-3,5-dimethyl-1H-pyrazol-4-yl}quinoline-2,4-dicarboxamide] | 35.6 nM |
| Cc1nn(Cc2ccc(C(=O)NC(CO)CO)cc2)c(C)c1NC(=O)c1cc(C(F)(F)F)nc2ccc(Br)cc12 [Example 1122] | 67.3 nM |
| COc1cc(C(=O)Nc2c(C)nn(Cc3ccc(F)cc3)c2C)c2ccccc2n1 [Example 27, N-[1-(4-fluorobenzyl)-3,5-dimethyl-1H-pyrazol-4-yl]-2-methoxyquinoline-4-carboxamide] | 16.5 nM |
| Cc1nn(Cc2ccc(F)cc2)c(C)c1NC(=O)c1cc(C#N)nc2ccccc12 [Example 78, 2-cyano-N-[1-(4-fluorobenzyl)-3,5-dimethyl-1H-pyrazol-4-yl]quinoline-4-carboxamide] | 223 nM |
| Cc1c(NC(=O)c2cc(C(N)=O)nc3cccc(F)c23)c(C(F)(F)F)nn1Cc1c(F)cc(C#N)cc1F [Example 397, N^4-[1-(4-cyano-2,6-difluorobenzyl)-5-methyl-3-(trifluoromethyl)-1H-pyrazol-4-yl]-5-fluoroquinoline-2,4-dicarboxamide] | 7.5 nM |
| Cc1nn(Cc2ccc(C(=O)Nc3cc[nH]n3)cc2)c(C)c1NC(=O)c1cc(C(F)(F)F)nc2ccc(Br)cc12 [Example 1055] | 14.4 nM |
| Cc1nn(Cc2ccc(C(=O)NCCn3ccnc3)cc2)c(C)c1NC(=O)c1cc(C(F)(F)F)nc2ccc(Br)cc12 [Example 1116] | 59.5 nM |

Other lines, results leading:

| IC50 | SMILES |
| --- | --- |
| 6.2 nM | Cc1cccc(Cn2nc(C(F)(F)F)c(NC(=O)c3cc(C(N)=O)nc4ccccc34)c2C)c1 [Example 1478] |
| 893 nM | COc1cc(C(=O)Nc2c(C)nn(Cc3csc(N4CCOCC4)n3)c2C)c2ccccc2n1 [Example 1530] |
| 721 nM | Cc1c(NC(=O)c2cc(C(N)=O)nc3ccccc23)c(C(F)(F)F)nn1Cc1nc(C(=O)O)co1 [Example 1684] |
| 10 nM | Cc1nn(Cc2c(F)cccc2F)c(C)c1NC(=O)c1cc(C(N)=O)nc2ccccc12 [Example 1632] |
| 1240 nM | Cc1nn(Cc2ccc(C#N)cc2)c(C)c1NC(=O)c1cc(C(=O)NCCN(C)C)nc2cc(F)ccc12 [Example 1401] |
| 3.5 nM | Cc1nn(Cc2ccc(C(F)(F)F)cc2)c(C)c1NC(=O)c1cc(C(N)=O)nc2cccc(F)c12 [Example 1600] |
| 20 nM | CCCS(=O)(=O)N1CCC(Cn2nc(C)c(NC(=O)c3cc(C(N)=O)nc4ccccc34)c2C)CC1 [Example 1510] |
| 2.2 nM | Cc1nn(Cc2c(F)cccc2F)c(C)c1NC(=O)c1cc(C(N)=O)nc2cc(F)c(Cl)cc12 [Example 1634] |
| 93.2 nM | Cc1cc(Cn2nc(C)c(NC(=O)c3cc(C(N)=O)nc4ccccc34)c2C)no1 [Example 1503] |
| 1600 nM | COc1cc(C(=O)Nc2c(C)nn(Cc3ccc(F)cc3)c2C(=O)N(C)C)c2ccccc2n1 [Example 1245] |
| 188 nM | COc1cc(C(=O)Nc2c(C)nn(CCOc3ccc(C#N)cc3)c2C)c2ccccc2n1 [Example 1348] |
| 10.3 nM | COc1cc(C#N)ccc1Cn1nc(C)c(NC(=O)c2cc(C(N)=O)nc3cccc(F)c23)c1C [Example 1650] |
| 219 nM | Cc1c(NC(=O)c2cc(S(N)(=O)=O)nc3ccccc23)c(C(F)(F)F)nn1Cc1ccc(C#N)cc1 [Example 1572] |
| 45.4 nM | Cc1nn(Cc2ccc(C(C)O)cc2)c(C)c1NC(=O)c1cc(C(N)=O)nc2ccccc12 (racemic) [Example 1635] |
| 4 nM | Cc1c(NC(=O)c2cc(C(N)=O)nc3cc(F)c(Cl)cc23)c(C(F)(F)F)nn1Cc1c(F)cccc1F [Example 1630] |

From US20170037028A1 (BAYER PHARMA AKTIENGESELLSCHAFT, priority 2013, published 2017)
